Measurements: ChEMBL document CHEMBL1201862, “PubChem BioAssay data set” (2004)
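Protocol summary: plate cells (96-well), add compound at 5 concentrations, incubate 48 h, interpolate endpoints linearly. The concentration for 50% growth inhibition is given as GI50.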 Active and inactive are the calls of the source. Rule as the data show it: active = GI50 up to about 1.1 µM and inactive = higher.

Key:
Test in all cases: NCI anticancer screen, dose series, 48 h
SK-MEL-5 = tested on: SK-MEL-5
OVCAR-3 = tested on: OVCAR-3
MDA-MB-231 = tested on: MDA-MB-231
U-251 = tested on: U-251
RPMI-8226 = tested on: RPMI-8226
HOP-92 = tested on: HOP-92
SK-OV-3 = tested on: SK-OV-3
OVCAR-5 = tested on: OVCAR-5
HOP-62 = tested on: HOP-62
SK-MEL-28 = tested on: SK-MEL-28
NCI-H460 = tested on: NCI-H460
MDA-MB-435 = tested on: MDA-MB-435
786-0 = tested on: 786-0
CCRF-CEM = tested on: CCRF-CEM
UACC-257 = tested on: UACC-257
HL-60 = tested on: HL-60
M14 = tested on: M14
SF-268 = tested on: SF-268
Malme-3M = tested on: Malme-3M
HCC 2998 = tested on: HCC 2998

Measured: GI50

CCOC(=O)c1cccn1S(=O)(=O)c1cc(Cl)ccc1NC(=O)CC
inactive: SK-MEL-5 20.2 µM | OVCAR-3 > 100 µM | MDA-MB-231 39.2 µM | U-251 > 100 µM | RPMI-8226 75.9 µM | HOP-92 > 100 µM | SK-OV-3 43.3 µM | OVCAR-5 > 100 µM | HOP-62 > 100 µM | SK-MEL-28 > 100 µM | NCI-H460 50.1 µM | MDA-MB-435 33.3 µM | 786-0 57 µM | CCRF-CEM > 100 µM | UACC-257 > 100 µM | HL-60 > 100 µM

Nc1ccccc1/C=C\c1ccccc1
inactive: SK-MEL-5 > 100 µM | OVCAR-3 > 100 µM | U-251 > 100 µM | RPMI-8226 > 100 µM | HOP-92 > 100 µM | SK-OV-3 > 100 µM | M14 > 100 µM | SF-268 > 100 µM | OVCAR-5 > 100 µM | Malme-3M > 100 µM | HOP-62 > 100 µM | SK-MEL-28 > 100 µM | NCI-H460 > 100 µM | MDA-MB-435 > 100 µM | 786-0 > 100 µM | CCRF-CEM > 100 µM | UACC-257 > 100 µM | HL-60 > 100 µM

N#CC1=C(Nc2ccccc2)SC=C(c2ccccc2)N=C1NCc1ccccc1
inactive: SK-MEL-5 54.5 µM | OVCAR-3 > 100 µM | MDA-MB-231 > 100 µM | U-251 > 100 µM | RPMI-8226 18.7 µM | SK-OV-3 > 100 µM | M14 > 100 µM | SF-268 > 100 µM | OVCAR-5 > 100 µM | Malme-3M > 100 µM | HOP-62 > 100 µM | SK-MEL-28 > 100 µM | MDA-MB-435 > 100 µM | 786-0 > 100 µM

O=C1Nc2ccccc2/C1=N/Nc1ncccc1[N+](=O)[O-]
inactive: OVCAR-3 6.25 µM | MDA-MB-231 86.9 µM | U-251 7.18 µM | RPMI-8226 3.15 µM | HOP-92 62.2 µM | SK-OV-3 12.1 µM | M14 16.3 µM | SF-268 11.9 µM | OVCAR-5 12.6 µM | Malme-3M 17.3 µM | HOP-62 12.9 µM | SK-MEL-28 22.6 µM | NCI-H460 16.7 µM | MDA-MB-435 16.8 µM | 786-0 4.84 µM | UACC-257 23 µM

C=CCN1C(=O)C=C(c2ccccc2)n2ncc3cccc1c32
inactive: SK-MEL-5 81.5 µM | OVCAR-3 > 100 µM | MDA-MB-231 > 100 µM | U-251 > 100 µM | RPMI-8226 97.7 µM | HOP-92 27.7 µM | SK-OV-3 > 100 µM | M14 > 100 µM | SF-268 > 100 µM | OVCAR-5 > 100 µM | Malme-3M > 100 µM | HOP-62 80.4 µM | SK-MEL-28 > 100 µM | MDA-MB-435 1.46 µM | 786-0 > 100 µM | CCRF-CEM 67.9 µM | UACC-257 > 100 µM | HL-60 > 100 µM

O=C(O)C1CCCN1C(=O)c1cc(Cl)ccn1 (centres undefined)
inactive: SK-MEL-5 > 100 µM | OVCAR-3 > 100 µM | U-251 > 100 µM | RPMI-8226 > 100 µM | HCC 2998 > 100 µM | HOP-92 > 100 µM | M14 > 100 µM | SF-268 > 100 µM | OVCAR-5 > 100 µM | Malme-3M > 100 µM | HOP-62 > 100 µM | SK-MEL-28 > 100 µM | NCI-H460 > 100 µM | MDA-MB-435 > 100 µM | 786-0 > 100 µM | CCRF-CEM > 100 µM | UACC-257 > 100 µM | HL-60 > 100 µM

Cc1ccc(S(=O)(=O)n2cc(/C=C/C#N)c(-c3cn(S(=O)(=O)c4ccc(C)cc4)cc3-c3cn(S(=O)(=O)c4ccc(C)cc4)cc3/C=C/C#N)c2)cc1
inactive: SK-MEL-5 > 100 µM | OVCAR-3 > 100 µM | MDA-MB-231 18.5 µM | RPMI-8226 17.4 µM | HOP-92 43.6 µM | SK-OV-3 > 100 µM | M14 47 µM | SF-268 > 100 µM | OVCAR-5 > 100 µM | Malme-3M > 100 µM | HOP-62 > 100 µM | MDA-MB-435 > 100 µM | 786-0 > 100 µM | UACC-257 > 100 µM

CSCCC(NC(=O)Cc1ccc(C(=O)c2ccccc2)cc1)C(=O)N1CCN(CCCCN2c3ccccc3Sc3cc(N=[N+]=[N-])ccc32)CC1 (centres undefined)
inactive: SK-MEL-5 30.2 µM | OVCAR-3 > 100 µM | MDA-MB-231 > 100 µM | U-251 > 100 µM | RPMI-8226 68.1 µM | HCC 2998 > 100 µM | HOP-92 > 100 µM | SK-OV-3 > 100 µM | SF-268 > 100 µM | OVCAR-5 > 100 µM | Malme-3M > 100 µM | HOP-62 > 100 µM | NCI-H460 > 100 µM | 786-0 > 100 µM | CCRF-CEM 49.3 µM | UACC-257 > 100 µM | HL-60 30.6 µM

Clc1ccc(OCc2nn3c(CCc4nnc5sc(COc6ccc(Cl)cc6)nn45)nnc3s2)cc1
inactive: SK-MEL-5 11.1 µM | OVCAR-3 16 µM | MDA-MB-231 19.8 µM | U-251 20.7 µM | RPMI-8226 17.3 µM | SK-OV-3 28.8 µM | M14 33.7 µM | SF-268 5.61 µM | OVCAR-5 53.7 µM | HOP-62 23.7 µM | SK-MEL-28 33.9 µM | NCI-H460 18.4 µM | MDA-MB-435 24.9 µM | 786-0 26.4 µM | CCRF-CEM 29.1 µM | UACC-257 22.9 µM | HL-60 18.8 µM

CC(=O)Nc1ccc2c(c1)nc1c3ccccc3ccn21
inactive: SK-MEL-5 > 100 µM | MDA-MB-231 > 100 µM | U-251 > 100 µM | HOP-92 > 100 µM | SK-OV-3 > 100 µM | M14 > 100 µM | SF-268 > 100 µM | OVCAR-5 > 100 µM | Malme-3M > 100 µM | HOP-62 50.6 µM | SK-MEL-28 > 100 µM | NCI-H460 > 100 µM | MDA-MB-435 > 100 µM | 786-0 > 100 µM | CCRF-CEM 27.8 µM | UACC-257 > 100 µM | HL-60 > 100 µM

O=S(=O)(O)c1ccc2c(/N=N/c3ccc(Cl)cc3)c(O)ccc2c1
inactive: SK-MEL-5 > 100 µM | OVCAR-3 > 100 µM | MDA-MB-231 > 100 µM | U-251 > 100 µM | RPMI-8226 > 100 µM | HOP-92 > 100 µM | SK-OV-3 > 100 µM | M14 > 100 µM | SF-268 > 100 µM | OVCAR-5 > 100 µM | Malme-3M > 100 µM | HOP-62 > 100 µM | SK-MEL-28 > 100 µM | MDA-MB-435 > 100 µM | 786-0 > 100 µM | CCRF-CEM > 100 µM | UACC-257 > 100 µM

N#C[BH2-][n+]1cn(C2CC(O)C(COP(=O)(O)OC3CC(n4ccc(N)nc4=O)OC3CO)O2)c2nc(N)[nH]c(=O)c21 (centres undefined)
inactive: SK-MEL-5 > 100 µM | OVCAR-3 > 100 µM | MDA-MB-231 > 100 µM | U-251 > 100 µM | RPMI-8226 > 100 µM | HCC 2998 > 100 µM | HOP-92 > 100 µM | M14 > 100 µM | SF-268 > 100 µM | OVCAR-5 > 100 µM | Malme-3M > 100 µM | HOP-62 > 100 µM | NCI-H460 > 100 µM | 786-0 > 100 µM | CCRF-CEM > 100 µM | UACC-257 > 100 µM | HL-60 > 100 µM
